Source: patent US20240109881A1, “Heteroaryl Compounds as Ligand Directed Degraders of IRAK4” (Bristol-Myers Squibb Company, priority 2022, published 2024)

Biological target: T1, IRAK4 (Homo sapiens, UniProt Q9NWZ3)
T1 construct: endogenous in cells; host or cells: THP-1 cells
T1 sequence (Q9NWZ3 1-460): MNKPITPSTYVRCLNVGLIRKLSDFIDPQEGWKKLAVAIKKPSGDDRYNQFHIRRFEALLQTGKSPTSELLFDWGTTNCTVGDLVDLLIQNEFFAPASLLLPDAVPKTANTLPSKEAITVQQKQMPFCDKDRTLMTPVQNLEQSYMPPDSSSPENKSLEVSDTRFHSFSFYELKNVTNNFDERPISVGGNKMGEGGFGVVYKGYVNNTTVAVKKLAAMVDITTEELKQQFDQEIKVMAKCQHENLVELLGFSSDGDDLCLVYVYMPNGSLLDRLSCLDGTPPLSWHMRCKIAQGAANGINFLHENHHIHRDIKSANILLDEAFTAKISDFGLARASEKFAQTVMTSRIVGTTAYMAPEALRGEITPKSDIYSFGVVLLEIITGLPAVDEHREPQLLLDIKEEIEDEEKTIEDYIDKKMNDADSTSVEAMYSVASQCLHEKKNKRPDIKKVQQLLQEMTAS
Experiment: LVL THP1 HTRF (THP1 Homogeneous Time Resolved Fluorescence)
Assay type: cell-based
Conditions: THP1 cells, 18 h incubation with compound; for DC50: read-out: LVL THP1 HTRF EC50
Experimental: Cell culture media was prepared in a tissue culture hood in a sterile environment by adding 10% FBS and 1% Penicillin Streptomycin to 500 mL no phenol red RPMI 1640 media. The media was filtered through a Nalgene Bottle Top Filter and stored at 4° C.
For Homogenous Time Resolved Fluorescence (HTRF) assays, a Cisbio HTRF kit was used, which included: Lysis Buffer #1 4×, Blocking Reagent #3 100×, 20× Antibody 1 (Anti-IRAK4 d2), 20× Antibody 2 (Anti-IRAK4 k), and Detection Buffer.
The THP1 plates were prepared by the following method. For each dosing plate, a duplicate for CTG assay was prepared. Two THP-1 T-175 flasks could be used to plate one 384 well plate. The cells were collected from two T-175 flasks into 200 mL centrifuge tubes and spun down at 1200 rpm for 10 min. The supernatant was removed completely and cells were resuspended in 7.5 mL cell culture media. To 5 μL of the cell suspension was added 25 μL of media and 30 μL of Trypan Blue stain. The cells were counted using countess (automated cell counter, Thermo Fisher Scientific) twice and the viability and live cell count was recorded. The actual cell count was […] the live cell count. Based on the count, a cell suspension was prepared in colorless RPMI media for a final concentration of 7.5e6 cells/mL. Using Standard cassette multidrop combi, 20 μL of the 7.5e6 cells/mL cell stock was added to entire 384 well plate but for top half of column 1 (negative control) The multidrop combi was always primed to achieve a steady flow and washed after use with 20 mL de-ionized water followed by 20 mL alcohol. The cells were incubated in 5% CO2 incubator at 37° C.
Dosing was conducted using the following method. To dose assay plates and CTG plate was added 20 nL of compounds in DMSO using Echo (Beckman Coulter), and the plates were incubated at 37° C. for 18 h. The compound plates were spun at 1200 rpm for 1 min before dosing. The compound plate was sealed and properly stored during incubation.
After dosing, an HTRF assay was conducted using the following method. The treatment plates (IRAK4_HTRF) were centrifuged at 600 g for 10 min. Using CyBio Felix, Automated liquid handler (Analytikjena), 13 μL cell culture media was removed. To all columns, 7.5 μL lysis buffer was added, and an additional 7.5 μL of lysis buffer was added to column 1(top half, negative control). The plate was incubated on a shaker at room temperature for 2 h. The plate was spun down at 600 g for 5 min. Custom 20×IRAK4 Antibody obtained from CISBIO Anti-IRAK4-d2 (acceptor Ab) and Anti-IRAK4-K (donor Ab) were diluted to 1× antibody mix Using a multichannel repeater, 4 μL of 1× antibody mix was added to each wellThe plate was spun down at 600 g for 5 min and incubated in the dark at room temperature for 18 h The next day (after 18 hrs), HTRF assay plate was spun down at 600 g for 5 min and read at 665/615 nm using a Envision plate reader.

SMILES | LVL THP1 HTRF YMIN [%] | DC50 [nM]
C[C@H](C#N)Nc1cc(-n2ncc3cc(C#N)cnc32)ncc1-n1cc(C2CCC(CCN3CC[C@H]4[C@@H]3CCN4c3ccc(N4CCC(=O)NC4=O)cc3)CC2)nn1 (single isomer, unassigned) [P-328] | 2.5 | 2.5
CC1CN(CC[C@H]2CC[C@H](c3cn(-c4cnc(-n5ncc6cc(C#N)cnc65)cc4N[C@H](C)C#N)nn3)CC2)CCC1c1ccc([C@@]2(F)CCC(=O)NC2=O)cc1 (single isomer, unassigned) [P-331] | −2.2 | 1.8
CC1CN(CC[C@H]2CC[C@H](c3cn(-c4cnc(-n5ncc6cc(C#N)cnc65)cc4N[C@H](C)C#N)nn3)CC2)CCC1c1ccc([C@@]2(F)CCC(=O)NC2=O)cc1 (single isomer, unassigned) [P-332] | 20.7 | 261
CC1CN(CC[C@H]2CC[C@H](c3cn(-c4cnc(-n5ncc6cc(C#N)cnc65)cc4N[C@H](C)C#N)nn3)CC2)CCC1c1ccc([C@@]2(F)CCC(=O)NC2=O)cc1 (single isomer, unassigned) [P-333] | 26.8 | 334
C[C@H](C#N)Nc1cc(-n2ncc3cc(C#N)cnc32)ncc1-n1cc([C@H]2CC[C@H](CCN3CCC(c4ccc([C@@]5(F)CCC(=O)NC5=O)cc4)CC3)CC2)nn1 (single isomer, unassigned) [P-337] | 2.7 | 3.8
C[C@H](C#N)Nc1cc(-n2ncc3cc(C#N)cnc32)ncc1-n1cc([C@H]2CC[C@H](CCN3CCC(c4ccc([C@@]5(F)CCC(=O)NC5=O)cc4)CC3)CC2)nn1 (single isomer, unassigned) [P-338] | 61.2 | 501
C[C@H](C#N)Nc1cc(-n2ncc3cc(C#N)cnc32)ncc1-n1cc([C@H]2CC[C@](O)(CCN3CCN(c4ccc(N5CCC(=O)NC5=O)cc4)CC3)CC2)nn1 (single isomer, unassigned) [P-373] | 72.5 | 1000
CC1CN(CC[C@H]2CC[C@H](c3cn(-c4cnc(-n5ncc6cc(C#N)cnc65)cc4N[C@H](C)C#N)nn3)CC2)CCC1c1ccc([C@@]2(F)CCC(=O)NC2=O)cc1 (single isomer, unassigned) [P-390] | −1.8 | 2.8
C[C@H](C#N)Nc1cc(-n2ncc3cc(C#N)cnc32)ncc1-n1cc([C@H]2CC[C@H](CCN3CCC(c4ccc(N5CCC(=O)NC5=O)cc4)C(F)C3)CC2)nn1 (single isomer, unassigned) [P-400] | 7.8 | 27.9
C[C@H](C#N)Nc1cc(-n2ncc3cc(C#N)cnc32)ncc1-n1cc([C@H]2CC[C@H](CCN3CCC[C@@H]4[C@H]3CCCN4c3ccc([C@@]4(C)CCC(=O)NC4=O)cc3)CC2)nn1 (single isomer, unassigned) [P-414] | 71.4 | 2350
C[C@H](C#N)Nc1cc(-n2ncc3cc(C#N)cnc32)ncc1-n1cc([C@H]2CC[C@H](CCN3CC[C@H]4[C@@H]3CCN4c3ccc([C@@]4(C)CCC(=O)NC4=O)nc3)CC2)nn1 (single isomer, unassigned) [P-415] | 37.5 | 192
C[C@H](C#N)Nc1cc(-n2ncc3cc(C#N)cnc32)ncc1-n1cc([C@H]2CC[C@H](CCN3CCC(c4ccc([C@@]5(C)CCC(=O)NC5=O)cc4)C(F)(F)C3)CC2)nn1 (single isomer, unassigned) [P-417] | 1.8 | 51.4
C[C@H](C#N)Nc1cc(-n2ncc3cc(C#N)cnc32)ncc1-n1cc([C@H]2CC[C@H](CCN3CC[C@H]4[C@@H]3CCN4c3ccc([C@@]4(C)CCC(=O)NC4=O)nc3)CC2)nn1 (single isomer, unassigned) [P-418] | 1.8 | 14.9
C[C@H](C#N)Nc1cc(-n2ncc3cc(C#N)cnc32)ncc1-n1cc([C@H]2CC[C@](O)(CCN3CCN(c4ccc([C@@]5(C)CCC(=O)NC5=O)nc4)CC3)CC2)nn1 (single isomer, unassigned) [P-419] | −0.8 | 31.6
C[C@H](C#N)Nc1cc(-n2ncc3cc(C#N)cnc32)ncc1-n1cc([C@H]2CC[C@H](CCN3CCC(c4ccc(N5CCC(=O)NC5=O)cc4)C(F)(F)C3)CC2)nn1 (single isomer, unassigned) [P-420] | 1.7 | 26.2
C[C@H](C#N)Nc1cc(-n2ncc3cc(C#N)cnc32)ncc1-n1cc([C@H]2CC[C@H](CCN3CCC(F)(c4ccc([C@@]5(C)CCC(=O)NC5=O)cc4)CC3)CC2)nn1 (single isomer, unassigned) [P-424] | 5.3 | 1.9
C[C@H](C#N)Nc1cc(-n2ncc3cc(C#N)cnc32)ncc1-n1cc([C@H]2CC[C@](O)(CCN3CCN(c4ccc([C@@]5(C)CCC(=O)NC5=O)cn4)CC3)CC2)nn1 (single isomer, unassigned) [P-426] | 41.0 | 1000
C[C@H](C#N)Nc1cc(-n2ncc3cc(C#N)cnc32)ncc1C(=O)N[C@H]1CC[C@H](CCN2CC[C@H]3[C@@H]2CCN3c2ccc([C@@]3(C)CCC(=O)NC3=O)cc2)CC1 (single isomer, unassigned) [P-427] | 1.8 | 40.4
C[C@H](C#N)Nc1cc(-n2ncc3cc(C#N)cnc32)ncc1-n1cc([C@H]2CC[C@](O)(CCN3CCN(c4ccc(N5CCC(=O)NC5=O)cc4)CC3)CC2)nn1 (single isomer, unassigned) [P-429] | 5.4 | 59.4
C[C@H](C#N)Nc1cc(-n2ncc3cc(C#N)cnc32)ncc1C(=O)N[C@H]1CC[C@H](CCN2CCC(c3ccc([C@@]4(F)CCC(=O)NC4=O)cc3)CC2)CC1 (single isomer, unassigned) [P-430] | −0.4 | 5.5
C[C@H](C#N)Nc1cc(-n2ncc3cc(C#N)cnc32)ncc1-n1cc([C@H]2CC[C@H](CCN3CC[C@H]4[C@@H]3CCN4c3ccc([C@@]4(C)CCC(=O)NC4=O)cn3)CC2)nn1 (single isomer, unassigned) [P-435] | 52.3 | 123
C[C@H](C#N)Nc1cc(-n2ncc3cc(C#N)c(N)nc32)ncc1-n1cc([C@H]2CC[C@H](CCN3CC[C@H]4[C@@H]3CCN4c3ccc([C@@]4(C)CCC(=O)NC4=O)cc3)CC2)nn1 (single isomer, unassigned) [P-453] | 0.6 | 4.6
C[C@H](C#N)Nc1cc(-n2ncc3cc(C#N)cnc32)ncc1-n1cc([C@H]2CC[C@H](CCN3CC[C@H]4[C@@H]3CCN4c3ccc([C@@]4(C)CCC(=O)NC4=O)cc3)CC2)nn1 (single isomer, unassigned) [P-454] | 1.1 | 13.6
C[C@H](C#N)Nc1cc(-n2ncc3cc(C#N)cnc32)ncc1-n1cc([C@H]2CC[C@H](CCN3CC[C@H]4[C@@H]3CCN4c3ccc(N4CCC(=O)NC4=O)c(F)c3)CC2)nn1 (single isomer, unassigned) [P-461] | 5.4 | 3.7
C[C@H](C#N)Nc1cc(-n2ncc3cc(C#N)cnc32)ncc1-n1cc([C@H]2CC[C@H](CCN3CC[C@H]4[C@@H]3CCN4c3ccc([C@@]4(C)CCC(=O)NC4=O)cc3)CC2)nn1 (single isomer, unassigned) [P-462] | 3.3 | 6.1
